Measured values taken from patent publication US10093678B2, “Azaspiro derivatives as TRPM8 antagonists” (RaQualia Pharma Inc., priority 2014, dated 2018).

Each compound was assayed against T1, human TRPM8 (Homo sapiens, UniProt Q7Z2W7) (assay: Menthol-induced Ca2+ influx in HEK293 cells stably expressing human TRPM8). Details: 30 microM menthol-induced Ca2+ influx, read-out: IC50 against TRPM8.
T1 construct: expressed in transfected cells; host or cells: HEK293
Type: cell-based
Protocol: Measurement of the Menthol-Induced Ca^2+ Influx in HEK293 Cells Stably Expressing Human TRPM8
A cell-based Ca^2+ influx assay using HEK293 cells stably expressing human TRPM8 is used to identify the activity of compounds.
HEK293 cells stably expressing human TRPM8 are grown in T175 flasks at 37° C. in a 5% CO2 humidified incubator to about 80% confluence. Media composition consists of Dulbecco's Modified Eagle Medium (high glucose), 10% fetal calf serum (FCS), 100 units/mLPenicillin, 100 microg/mL Streptomycin and 600 microg/mL Geneticine. At 24 hours prior to assay, cells are seeded in poly-D-lysine coated 384-well plates (BD FALCON) at a density of 30,000 cells per well in culture medium and grown overnight in 5% CO2 at 37° C. On the assay day, growth media is removed and cells are loaded with 0.5 microM Fluo4-AM (Molecular Probes) and 0.005% Pluronic F-127 dissolved in assay buffer (Hank's balanced salt solution (HBSS), 19.4 mM HEPES pH7.4, 2.5 mM Probenecid) for 1 hour at room temperature. After washing with assay buffer, the cells are preincubated with various concentrations of the compounds for 5 min. The changes in intracellular calcium concentration by addition of 30 microM menthol are monitored by the cell imaging technology by Hamamatsu Photonics Functional Drug Screening System (FDSS).
The IC50 values for compounds of the present invention are determined from 11-point dose-response studies. Curves are generated using the average of duplicate wells for each data point. Finally, the IC50 values are calculated with the best-fit dose curve determined by XLfit (ID Business Solutions Ltd.).

T1 sequence (Q7Z2W7 whole entry): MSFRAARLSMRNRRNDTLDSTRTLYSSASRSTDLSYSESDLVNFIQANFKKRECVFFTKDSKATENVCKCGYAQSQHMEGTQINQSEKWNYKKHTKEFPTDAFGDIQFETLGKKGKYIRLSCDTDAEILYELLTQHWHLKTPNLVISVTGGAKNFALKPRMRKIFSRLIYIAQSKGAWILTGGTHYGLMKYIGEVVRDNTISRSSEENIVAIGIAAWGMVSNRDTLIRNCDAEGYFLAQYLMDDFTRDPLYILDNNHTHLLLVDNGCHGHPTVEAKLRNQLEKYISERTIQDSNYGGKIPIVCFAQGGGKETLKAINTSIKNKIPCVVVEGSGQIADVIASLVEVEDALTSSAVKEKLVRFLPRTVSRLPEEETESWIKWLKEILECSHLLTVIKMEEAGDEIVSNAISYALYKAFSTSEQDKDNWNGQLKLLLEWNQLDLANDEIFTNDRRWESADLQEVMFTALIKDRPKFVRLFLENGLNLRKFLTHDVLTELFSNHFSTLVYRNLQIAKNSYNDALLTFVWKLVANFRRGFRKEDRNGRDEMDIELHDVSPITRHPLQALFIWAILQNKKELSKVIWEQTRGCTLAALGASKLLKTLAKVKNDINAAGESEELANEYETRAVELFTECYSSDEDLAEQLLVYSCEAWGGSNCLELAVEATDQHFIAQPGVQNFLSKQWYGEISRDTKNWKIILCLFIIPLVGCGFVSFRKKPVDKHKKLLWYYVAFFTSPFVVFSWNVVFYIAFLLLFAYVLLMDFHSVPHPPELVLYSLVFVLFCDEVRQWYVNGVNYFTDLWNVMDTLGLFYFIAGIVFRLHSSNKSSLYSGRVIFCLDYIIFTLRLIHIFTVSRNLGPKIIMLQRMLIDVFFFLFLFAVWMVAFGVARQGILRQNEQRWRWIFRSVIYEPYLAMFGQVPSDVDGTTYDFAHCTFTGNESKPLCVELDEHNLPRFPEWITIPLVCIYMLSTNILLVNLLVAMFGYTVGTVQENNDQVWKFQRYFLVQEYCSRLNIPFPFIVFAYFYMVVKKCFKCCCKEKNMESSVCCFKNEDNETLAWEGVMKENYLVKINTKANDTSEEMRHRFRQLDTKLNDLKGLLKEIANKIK

| Structure (SMILES) | IC50 |
| --- | --- |
| O=C(CN1C(=O)NC2(CCC(F)(F)CC2)C1=O)c1ccc(-c2nncc3ccccc23)cc1 [Example 6-18] | < 0.1 µM |
| O=C(CN1C(=O)NC2(CCC(F)(F)CC2)C1=O)c1ccc(-n2ncc3ccccc32)cc1 [Example 5-6] | < 0.1 µM |
| O=C(CN1C(=O)NC2(CCC(F)(F)CC2)C1=O)c1ccc(-c2cnccn2)cc1 [Example 6-100] | < 0.5 µM |
| O=C(CN1C(=O)NC2(CCC(F)(F)CC2)C1=O)c1ccc(-c2cccc3nccn23)cc1 [Example 6-21] | < 0.1 µM |
| Cc1ccc(C#N)c(-c2ccc(C(=O)CN3C(=O)NC4(CCC(F)(F)CC4)C3=O)cc2)n1 [Example 6-92] | < 0.1 µM |
| COCc1ccccc1-c1ccc(C(=O)CN2C(=O)NC3(CCC(F)(F)CC3)C2=O)cc1 [Example 6-114] | < 0.1 µM |
| Cc1nc2ccccc2n1-c1ccc(C(=O)CN2C(=O)NC3(CCC(F)(F)CC3)C2=O)cn1 [Example 5-14] | < 0.01 µM |
| Cc1cc(C(=O)CN2C(=O)NC3(CCC(F)(F)CC3)C2=O)c(C)n1-c1noc2ccccc12 [Example 3-18] | < 0.1 µM |
| Cc1ncsc1-c1ccc(C(=O)CN2C(=O)NC3(CCC(F)(F)CC3)C2=O)cc1 [Example 6-12] | < 0.1 µM |
| Cc1cc(C)nc(-n2c(C)cc(C(=O)CN3C(=O)NC4(CCC(F)(F)CC4)C3=O)c2C)c1 [Example 3-16] | < 0.1 µM |
| Cc1cccc(-n2c(C)nc(C(=O)CN3C(=O)NC4(CCC(F)(F)CC4)C3=O)c2C)c1 [Example 2-12] | < 0.1 µM |
| O=C(CN1C(=O)NC2(CCC(F)(F)CC2)C1=O)c1ccc(Sc2ncccn2)cc1 [Example 5-39] | < 0.1 µM |
| Cn1c(-c2ccccc2)cnc1C(=O)CN1C(=O)NC2(CCC(F)(F)CC2)C1=O [Example 4-4] | < 0.1 µM |
| Cc1cncc(-n2c(C)cc(C(=O)CN3C(=O)NC4(CCC(F)(F)CC4)C3=O)c2C)n1 [Example 3-2] | < 0.1 µM |
| N#Cc1cccc(-c2ccc(C(=O)CN3C(=O)NC4(CCCCC4)C3=O)cc2)n1 [Example 7-5] | < 0.1 µM |
| Cc1cnc(-n2c(C)cc(C(=O)CN3C(=O)NC4(CCC(F)(F)CC4)C3=O)c2C)s1 [Example 3-17] | < 0.1 µM |

| Structure (SMILES) | IC50 |
| --- | --- |
| Cc1cc(-n2c(C)cc(C(=O)CN3C(=O)NC4(CCC(F)(F)CC4)C3=O)c2C)on1 [Example 3-1] | < 0.1 µM |
| N#Cc1ncccc1-c1ccc(C(=O)CN2C(=O)NC3(CCCCC3)C2=O)cc1 [Example 7-8] | < 0.1 µM |
| O=C(CN1C(=O)NC2(CCC(F)(F)CC2)C1=O)c1ccc(-c2ccnc3ccccc23)nc1 [Example 9-18] | < 0.1 µM |
| Nc1nccnc1-c1ccc(C(=O)CN2C(=O)NC3(CCC(F)(F)CC3)C2=O)cc1 [Example 6-117] | < 0.5 µM |
| O=C(CN1C(=O)NC2(CCC(F)(F)CC2)C1=O)c1ccc(-c2cnc3cccnn23)cc1 [Example 6-116] | < 0.1 µM |
| Cc1cc(-n2c(C)cc(C(=O)CN3C(=O)OC4(CCC(F)(F)CC4)C3=O)c2C)no1 [Example 1-2] | < 0.1 µM |
| O=C1Cc2c(-c3ccc(C(=O)CN4C(=O)NC5(CCC(F)(F)CC5)C4=O)cc3)ccnc2N1 [Example 6-42] | < 0.5 µM |
| Cc1cccc(-n2c(C)cc(C(=O)CN3C(=O)NC4(CCCCCC4)C3=O)c2C)n1 [Example 3-14] | < 0.1 µM |
| Cc1cc(-n2c(C)cc(C(=O)CN3C(=O)OC4(CC5CCC4C5)C3=O)c2C)no1 (centres unmarked) [Example 1-4] | < 0.5 µM |
| CC(O)c1ccccc1-c1ccc(C(=O)CN2C(=O)NC3(CCC(F)(F)CC3)C2=O)cc1 (centres unmarked) [Example 6-40] | < 0.1 µM |
| O=C(CN1C(=O)NC2(CCC(F)(F)CC2)C1=O)c1ccc(-c2nccc3cnccc23)cc1 [Example 6-37] | < 0.1 µM |
| O=C(CN1C(=O)NC2(CCCCC2)C1=O)c1ccc(-c2ccccc2CO)nc1 [Example 9-5] | < 0.1 µM |
| O=C(CN1C(=O)NC2(CCC(F)(F)CC2)C1=O)c1ccc(-c2cccc3ccncc23)nc1 [Example 9-12] | < 0.01 µM |
| O=C(CN1C(=O)NC2(CCC(F)(F)CC2)C1=O)c1ccc(-c2n[nH]c3ccccc23)cc1 [Example 6-32] | < 0.1 µM |
| Cc1cccc(-n2c(C)nc(C(=O)CN3CC4(CCC(F)(F)CC4)OC3=O)c2C)c1 [Example 2-17] | < 0.5 µM |
| Cc1nc(C(=O)CN2C(=O)NC3(CCC(F)(F)CC3)C2=O)sc1-c1ccccc1 [Example 4-5] | < 0.1 µM |

More lines, now with the values ahead:

| IC50 | Structure (SMILES) |
| --- | --- |
| < 0.1 µM | O=C(CN1C(=O)NC2(CCC(F)(F)CC2)C1=O)c1ccc(-n2c(=O)[nH]c3cccnc32)cc1 [Example 23-1, 8,8-difluoro-3-(2-oxo-2-(4-(2-oxo-1H-imidazo[4,5-b]pyridin-3(2H)-yl)phenyl)ethyl)-1,3-diazaspiro[4.5]decane-2,4-dione] |
| < 0.5 µM | Cc1ncccc1-c1c(C)c(C(=O)CN2C(=O)NC3(CCC(F)(F)CC3)C2=O)cn1C [Example 16-28] |
| < 0.1 µM | Cc1ccncc1-c1ccc(C(=O)CN2CC3(CCC(F)(F)CC3)OC2=O)cc1 [Example 13-53] |
| < 0.1 µM | Cc1cc(C(=O)CN2C(=O)NC3(CCCCC3)C2=O)sc1-c1ccccc1CO [Example 14-2] |
| < 0.1 µM | O=C1Cc2c(cccc2-c2ccc(C(=O)CN3C(=O)NC4(CCC(F)(F)CC4)C3=O)cc2)N1 [Example 13-44] |
| < 0.1 µM | O=C(CN1C(=O)NC2(CCC(F)(F)CC2)C1=O)c1ccc(-n2c(C(F)(F)F)nc3cccnc32)cc1 [Example 24-6, 8,8-difluoro-3-(2-oxo-2-(4-(2-(trifluoromethyl)-3H-imidazo[4,5-b]pyridin-3-yl)phenyl)ethyl)-1,3-diazaspiro[4.5]decane-2,4-dione] |
| < 0.1 µM | O=C(CN1C(=O)NC2(CCCCC2)C1=O)c1ccc(-c2cccnc2)cc1F [Example 13-18] |
| < 0.1 µM | COc1ccncc1-c1sc(C(=O)CN2C(=O)NC3(CCC(F)(F)CC3)C2=O)cc1C [Example 14-16] |
| < 0.1 µM | O=C1Cc2c(cccc2-c2ccc(C(=O)CN3C(=O)NC4(CCC(F)(F)CC4)C3=O)cn2)N1 [Example 9-19] |
| < 0.01 µM | Cc1ccc2nc(C(F)(F)F)n(-c3ccc(C(=O)CN4C(=O)NC5(CCC(F)(F)CC5)C4=O)cc3)c2n1 [Example 24-7, 8,8-difluoro-3-(2-(4-(5-methyl-2-(trifluoromethyl)-3H-imidazo[4,5-b]pyridin-3-yl)phenyl)-2-oxoethyl)-1,3-diazaspiro[4.5]decane-2,4-dione] |
| < 0.1 µM | Cc1c(C(=O)CN2C(=O)NC3(CCC(F)(F)CC3)C2=O)cn(C)c1-c1cccc(C#N)c1 [Example 16-22] |
| < 0.5 µM | Cc1c(C(=O)CN2C(=O)NC3(CCC(F)(F)CC3)C2=O)cn(C)c1-c1cccnc1 [Example 16-26] |
| < 0.01 µM | O=C(CN1C(=O)NC2(CCC(F)(F)CC2)C1=O)c1ccc(-n2c(=O)oc3ccccc32)cc1 [Example 19-30] |
| < 0.1 µM | Cc1cc(C(=O)CN2C(=O)NC3(CCC(F)(F)CC3)C2=O)n(C)c1-c1cncc(F)c1 [Example 16-21] |
| < 0.1 µM | Cc1ccccc1-c1ccc(C(=O)CN2C(=O)NC3(CCCCC3)C2=O)cc1C [Example 13-6] |
| < 0.1 µM | COc1cccc(-c2c(C)cc(C(=O)CN3C(=O)NC4(CCC(F)(F)CC4)C3=O)n2C)c1 [Example 16-14] |
| < 0.1 µM | Cc1sc(C(=O)CN2C(=O)NC3(CCC(F)(F)CC3)C2=O)c(C)c1-c1ccccc1C#N [Example 15-1] |
| < 0.1 µM | Cc1cc2ccccc2n1-c1ccc(C(=O)CN2C(=O)NC3(CCC(F)(F)CC3)C2=O)cn1 [Example 19-12] |
| < 0.5 µM | O=C(CN1CC2(CCC(F)(F)CC2)OC1=O)c1ccc(-c2cccc3cccnc23)cc1 [Example 13-57] |
| < 0.1 µM | O=C(CN1C(=O)NC2(CCC(F)(F)CC2)C1=O)c1ccc(Oc2ncccc2Cl)cc1 [Example 21-2, 3-(2-(4-((3-chloropyridin-2-yl)oxy)phenyl)-2-oxoethyl)-8,8-difluoro-1,3-diazaspiro[4.5]decane-2,4-dione] |
| < 0.01 µM | O=C(CN1C(=O)NC2(CCC(F)(F)CC2)C1=O)c1ccc(-c2cncc3ccccc23)cc1 [Example 13-37] |
| < 0.1 µM | O=C(CN1C(=O)NC2(CCC(F)(F)CC2)C1=O)c1ccc(-c2cccnc2)cc1 [Example 13-48] |
| < 0.1 µM | Cc1nc(C(=O)CN2C(=O)NC3(CCC(F)(F)CC3)C2=O)n(C)c1-c1ccccc1CO [Example 17-10] |
| < 0.1 µM | Cc1cc(C(=O)CN2C(=O)NC3(CCC(F)(F)CC3)C2=O)ccc1-c1cccc2ccncc12 [Example 13-15] |
| < 0.1 µM | Cc1cc(C(=O)CN2C(=O)NC3(CCC(F)(F)CC3)C2=O)sc1-c1ccccc1Cl [Example 14-14] |
| < 0.5 µM | Cc1ccc2nc(CN3CCC3)n(-c3ccc(C(=O)CN4C(=O)NC5(CCC(F)(F)CC5)C4=O)cc3)c2n1 [Example 25-4] |
| < 0.5 µM | Cc1ccccc1-c1ccc(C(=O)CN2C(=O)NC3(CCC(F)(F)CC3)C2=O)n1C [Example 16-32] |
| < 0.5 µM | Cc1cccc(-c2c(C)sc(C(=O)CN3C(=O)NC4(CCC(F)(F)CC4)C3=O)c2C)c1 [Example 15-11] |
| < 0.1 µM | Cc1cc(C(=O)CN2C(=O)NC3(CCC(F)(F)CC3)C2=O)sc1-c1cccnc1C [Example 14-9] |
| < 0.1 µM | CN(c1ccccn1)c1ccc(C(=O)CN2C(=O)NC3(CCC(F)(F)CC3)C2=O)cn1 [Example 19-6] |
